Source: US12637478B2, “Compound, preparation method thereof, and antibiotic composition comprising same” (priority 2020, dated 2026)
≈ marks a conversion by molar mass, not a printed value. Like-named read-outs stand apart in the source and are kept apart here.

Columns and labels:
E. faecium^LinR = experiment: MIC by broth microdilution (aerobic pathogens), test strain 12; assay type: cell-based, Linezolid resistant Enterococcus faecium; details: Enterococcus faecium; test strain 12, E. faecium^LinR (linezolid resistant); read-out: MIC
Outline: (§1)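 Read-out is the concentration achieving 90% growth inhibition relative to non-treated control, determined by broth microdilution under CLSI M7-A5 conditions.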

S. aureus^VR = experiment: MIC by broth microdilution (aerobic pathogens), test strain 4; assay type: cell-based, Vancomycin resistant Staphylococcus aureus; details: Staphylococcus aureus; test strain 4, S. aureus^VR (vancomycin resistant); read-out: MIC
Method: (§2) The antibacterial activity of the compounds of Examples 1 to 48 of the present invention against aerobic pathogens were evaluated by measuring the minimum concentration of the antibiotic capable of inhibiting bacterial growth by 90% compared to the growth of the non-drug treated control group. MIC was measured by the broth microdilution method based on CLSI standards [Reference: Clinical and Laboratory Standards Institute Document. (2000) Methods for Dilution Antimicrobial Susceptibility Test for Bacteria that Grow Aerobically-Fifth Edition: M7-A5. CLSI, Villanova, PA].
(§3) All 13 strains such as methicillin susceptible Staphylococcus aureus (MSSA), methicillin resistant Staphylococcus aureus (MRSA), Vancomycin resistant Staphylococcus aureus (VRSA), Staphylococcus epidermidis, methicillin resistant Staphylococcus epidermidis, Enterococcus faecalis, Vancomycin resistant Enterococcus faecalis, Enterococcus faecium, Vancomycin resistant Enterococcus faecium were used.

E. faecalis^LinR = experiment: MIC by broth microdilution (aerobic pathogens), test strain 9; assay type: cell-based, Linezolid resistant Enterococcus faecalis; details: Enterococcus faecalis; test strain 9, E. faecalis^LinR (linezolid resistant); read-out: MIC
Outline: as §1

E. faecium = experiment: MIC by broth microdilution (aerobic pathogens), test strain 10; assay type: cell-based; details: Enterococcus faecium; test strain 10, E. faecium; read-out: MIC
Outline: as §1

S. aureus^MS [1] = experiment: MIC by broth microdilution (aerobic pathogens), test strain 2; assay type: cell-based; details: Staphylococcus aureus; test strain 2, S. aureus^MS; read-out: MIC
Outline: as §1

C. difficile 174 = experiment: MIC by agar dilution against Clostridioides difficile, test strain 18; assay type: cell-based; details: test strain 18, C. difficile 174, anaerobic, agar dilution, read-out: MIC
S. epidermis = experiment: MIC by broth microdilution (aerobic pathogens), test strain 5; assay type: cell-based; details: Staphylococcus epidermidis
Outline: as §1

E. faecium^VRE = experiment: MIC by broth microdilution (aerobic pathogens), test strain 11; assay type: cell-based, Vancomycin resistant Enterococcus faecium; details: Enterococcus faecium; test strain 11, E. faecium^VRE (vancomycin resistant); read-out: MIC
Method: as §2, §3

C. difficile 173 = experiment: MIC by agar dilution against Clostridioides difficile, test strain 17; assay type: cell-based; details: test strain 17, C. difficile 173, anaerobic, agar dilution, read-out: MIC
C. difficile 152 = experiment: MIC by agar dilution against Clostridioides difficile, test strain 14; assay type: cell-based; details: test strain 14, C. difficile 152, anaerobic, agar dilution, read-out: MIC
E. faecalis^VanA = experiment: MIC by broth microdilution (aerobic pathogens), test strain 8; assay type: cell-based, Vancomycin resistant Enterococcus faecalis; details: Enterococcus faecalis; test strain 8, E. faecalis^VanA (vancomycin resistant); read-out: MIC
Outline: as §1

M. tuberculosis = experiment: MIC by resazurin (REMA) assay against Mycobacterium, test strain 20; assay type: cell-based
Method: (§4) In order to test the antibacterial activity, the medium of Mycobacterium cultured to late log phase was diluted so as to be 4.0×10^5 cells/well in Middlebrook 7H10 agar medium (Difco) supplemented with 10% oleic acid, albumin, dextrose, catalase (OADC, Becton Dickinson) and 0.05% Tween 80 (Sigma Aldrich) and was dispensed into a 96-well plate. The compounds were treated so that DMSO was 1%, and after 3 days, a 0.025% resazurin (REMA) solution was dispensed, and the growth of the bacteria was confirmed after culturing. The MIC value was measured for the antibacterial activity through resazurin (excitation 530 nm, emission 590 nm).

C. difficile 161 = experiment: MIC by agar dilution against Clostridioides difficile, test strain 16; assay type: cell-based; details: test strain 16, C. difficile 161, anaerobic, agar dilution, read-out: MIC
C. difficile 181 = experiment: MIC by agar dilution against Clostridioides difficile, test strain 19; assay type: cell-based; details: test strain 19, C. difficile 181, anaerobic, agar dilution, read-out: MIC
S. aureus^MS [2] = experiment: MIC by broth microdilution (aerobic pathogens), test strain 1; assay type: cell-based; details: Staphylococcus aureus; test strain 1, S. aureus^MS; read-out: MIC
Outline: as §1

E. faecalis = experiment: MIC by broth microdilution (aerobic pathogens), test strain 7; assay type: cell-based; details: Enterococcus faecalis
Outline: as §1

S. epidermis^MR = experiment: MIC by broth microdilution (aerobic pathogens), test strain 6; assay type: cell-based, Methicillin resistant Staphylococcus epidermidis; details: Staphylococcus epidermidis; test strain 6, S. epidermis^MR (methicillin resistant); read-out: MIC
Outline: as §1

C. difficile 159 = experiment: MIC by agar dilution against Clostridioides difficile, test strain 15; assay type: cell-based; details: test strain 15, C. difficile 159, anaerobic, agar dilution, read-out: MIC
S. aureus^MR = experiment: MIC by broth microdilution (aerobic pathogens), test strain 3; assay type: cell-based, Methicillin resistant Staphylococcus aureus; details: Staphylococcus aureus; test strain 3, S. aureus^MR (methicillin resistant); read-out: MIC
Method: as §2, §3

M. intracelluare = experiment: MIC by resazurin (REMA) assay against Mycobacterium, test strain 22; assay type: cell-based; details: Mycobacterium intracellulare
Method: as §4

M. avium = experiment: MIC by resazurin (REMA) assay against Mycobacterium, test strain 21; assay type: cell-based
Method: as §4

M. abscessus = experiment: MIC by resazurin (REMA) assay against Mycobacterium, test strain 23; assay type: cell-based; details: Mycobacteroides abscessus
Method: as §4

C. difficile 9689 = experiment: MIC by agar dilution against Clostridioides difficile, test strain 13; assay type: cell-based; details: test strain 13, C. difficile 9689, anaerobic, agar dilution, read-out: MIC
[3] = test strain 5, S. epidermis, read-out: MIC
[4] = test strain 7, E. faecalis, read-out: MIC
[5] = test strain 22, M. intracelluare, resazurin, read-out: MIC
[6] = test strain 21, M. avium, resazurin, read-out: MIC
[7] = test strain 23, M. abscessus, resazurin, read-out: MIC

Row | Compound | MIC (E. faecium^LinR) [µg/mL] | MIC (S. aureus^VR) [µg/mL] | MIC (E. faecalis^LinR) [µg/mL] | MIC (E. faecium) [µg/mL] | MIC (S. aureus^MS [1]) [µg/mL] | MIC (C. difficile 174) [µg/mL] | MIC (S. epidermis; [3]) [µg/mL] | MIC (C. difficile 173) [µg/mL] | MIC (C. difficile 152) [µg/mL] | MIC (E. faecalis^VanA) [µg/mL] | MIC (C. difficile 161) [µg/mL] | MIC (S. aureus^MS [2]) [µg/mL] | MIC (E. faecalis; [4]) [µg/mL] | MIC (S. epidermis^MR) [µg/mL] | MIC (S. aureus^MR) [µg/mL] | MIC (M. intracelluare; [5]) [µg/mL] | MIC (M. avium; [6]) [µg/mL] | MIC (M. abscessus; [7]) [µg/mL] | further results
1 | C/C=C(\NC(=O)c1csc(-c2csc(-c3ccc4c(n3)-c3csc(n3)[C@H]([C@@H](C)O)NC(=O)c3csc(n3)[C@H](C(C)C)NC(=O)c3csc(n3)/C(=C/C)NC(=O)[C@H]([C@@H](C)O)NC(=O)c3csc-4n3)n2)n1)C(=O)NCCn1c([N+](=O)[O-])cnc1C [Compound 3] | 0.25 (≈ 0.202 µM) | 0.25 (≈ 0.202 µM) | 0.125 (≈ 0.101 µM) | 0.125 (≈ 0.101 µM) | < 0.0625 | 0.25 (≈ 0.202 µM) | 0.25 (≈ 0.202 µM) | 0.5 (≈ 0.403 µM) | 1 (≈ 0.807 µM) | 0.125 (≈ 0.101 µM) | 0.25 (≈ 0.202 µM) | 0.0625 (≈ 0.0504 µM) | 0.0625 (≈ 0.0504 µM) | 0.125 (≈ 0.101 µM) | 1 (≈ 0.807 µM) |  |  |  | MIC (E. faecium^VRE): 0.25 µg/mL (≈ 0.202 µM); MIC (M. tuberculosis): 0.1 µg/mL (≈ 0.0807 µM); MIC (C. difficile 181): 0.5 µg/mL (≈ 0.403 µM); MIC (C. difficile 159): 1 µg/mL (≈ 0.807 µM)
2 | C/C=C1\NC(=O)[C@H]([C@@H](C)O)NC(=O)c2csc(n2)-c2ccc(-c3nc(-c4nc(C(=O)NC5(C(=O)NCCN6CCN(C)CC6)CC5)cs4)cs3)nc2-c2csc(n2)[C@H]([C@@H](C)O)NC(=O)c2csc(n2)[C@H](C(C)C)NC(=O)c2csc1n2 [Compound 4] | 1 (≈ 0.825 µM) | 1 (≈ 0.825 µM) | 1 (≈ 0.825 µM) | 0.5 (≈ 0.412 µM) | 0.5 (≈ 0.412 µM) |  |  |  |  | 0.5 (≈ 0.412 µM) |  | 0.5 (≈ 0.412 µM) |  | 0.5 (≈ 0.412 µM) | 1 (≈ 0.825 µM) |  |  |  | MIC (S. epidermis): 0.25 µg/mL (≈ 0.206 µM); MIC (M. intracelluare): 0.143 µg/mL (≈ 0.118 µM); MIC (M. avium): 0.115 µg/mL (≈ 0.0948 µM); MIC (M. abscessus): 0.157 µg/mL (≈ 0.129 µM); MIC (E. faecalis): 0.25 µg/mL (≈ 0.206 µM)
3 | C/C=C1\NC(=O)[C@H]([C@@H](C)O)NC(=O)c2csc(n2)-c2ccc(-c3nc(-c4nc(C(=O)NC5(C(=O)NCCCN6CCSCC6)CC5)cs4)cs3)nc2-c2csc(n2)[C@H]([C@@H](C)O)NC(=O)c2csc(n2)[C@H](C(C)C)NC(=O)c2csc1n2 [Compound 18] |  |  | 0.5 (≈ 0.407 µM) | 1 (≈ 0.813 µM) | 1 (≈ 0.813 µM) | 0.25 (≈ 0.203 µM) | 0.5 (≈ 0.407 µM) | 1 (≈ 0.813 µM) | 0.25 (≈ 0.203 µM) |  | 1 (≈ 0.813 µM) | 0.25 (≈ 0.203 µM) | 1 (≈ 0.813 µM) | 1 (≈ 0.813 µM) |  | 0.127 (≈ 0.103 µM) | 0.082 (≈ 0.0667 µM) | 0.173 (≈ 0.141 µM) | MIC (C. difficile 9689): 0.5 µg/mL (≈ 0.407 µM)
4 | C/C=C1\NC(=O)[C@H]([C@@H](C)O)NC(=O)c2csc(n2)-c2ccc(-c3nc(-c4nc(C(=O)NC5(C(=O)NCCN6CCN(C(C)C)CC6)CC5)cs4)cs3)nc2-c2csc(n2)[C@H]([C@@H](C)O)NC(=O)c2csc(n2)[C@H](C(C)C)NC(=O)c2csc1n2 [Compound 35] | 1 (≈ 0.806 µM) |  | 1 (≈ 0.806 µM) |  |  |  | 0.25 (≈ 0.202 µM) |  |  |  |  | 0.5 (≈ 0.403 µM) | 0.5 (≈ 0.403 µM) | 0.5 (≈ 0.403 µM) |  | 0.139 (≈ 0.112 µM) | 0.109 (≈ 0.0879 µM) | 0.123 (≈ 0.0991 µM) | 
